Usually IC50 stands for the concentration needed to halve the response being measured. Read a high IC50 as weaker potency. Broadly, the Ki is a measure of affinity in units of concentration, obtained from inhibition or displacement.

This is an account of results in US7312358B2, “Pharmaceutically active sulfanilide derivatives” (Laboratoires Serono SA, priority 2000, dated 2007).

The target in one experiment is T1, hOT-R (Homo sapiens, UniProt P30559).
T1 construct: expressed in transfected cells; host or cells: HEK (Human Embryonic Kidney) cells
T1 sequence (P30559 1-389): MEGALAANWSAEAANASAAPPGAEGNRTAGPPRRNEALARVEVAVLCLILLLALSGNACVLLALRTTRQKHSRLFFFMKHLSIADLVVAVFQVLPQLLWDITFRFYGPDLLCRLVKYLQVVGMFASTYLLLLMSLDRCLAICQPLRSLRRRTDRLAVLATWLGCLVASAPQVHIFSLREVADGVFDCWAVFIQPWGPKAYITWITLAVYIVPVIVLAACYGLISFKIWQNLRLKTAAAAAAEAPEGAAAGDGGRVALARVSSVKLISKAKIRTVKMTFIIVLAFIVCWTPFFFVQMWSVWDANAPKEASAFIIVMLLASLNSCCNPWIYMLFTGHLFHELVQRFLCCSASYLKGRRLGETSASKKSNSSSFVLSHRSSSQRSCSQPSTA
In words: Inhibition of oxytocin mediated Ca2+-mobilization by FLIPR (HEK cells). In kind it is cell-based. The settings on record: fluo-4, OT 40 nM. The gist of the method:
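HEK cells loaded with fluo-4 for 1.5–2 h; antagonist added at 10 pM–30 μM in HEPES-buffered saline, pH 7.4, then stimulated with 40 nM oxytocin. Intracellular Ca2+ mobilization read as fluorescence on FLIPR.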

The target of the next experiment is hV1a (Homo sapiens, UniProt P37288). In words: In vitro competition binding assay on hV1a receptor with scintillating proximity assay. Set-up: expressed in transfected cells; host or cells: CHO cells (membranes). Particulars: membranes from CHO cells expressing hV1a receptor; radiolabel [125I]-LVA; SPA; read-out: Binding Affinity Human V1a Ki. The method, then: b) In Vitro Competition Binding Assay on hV1a Receptor with Scintillating Proximity Assay
hV1a, sequence (P37288 whole entry): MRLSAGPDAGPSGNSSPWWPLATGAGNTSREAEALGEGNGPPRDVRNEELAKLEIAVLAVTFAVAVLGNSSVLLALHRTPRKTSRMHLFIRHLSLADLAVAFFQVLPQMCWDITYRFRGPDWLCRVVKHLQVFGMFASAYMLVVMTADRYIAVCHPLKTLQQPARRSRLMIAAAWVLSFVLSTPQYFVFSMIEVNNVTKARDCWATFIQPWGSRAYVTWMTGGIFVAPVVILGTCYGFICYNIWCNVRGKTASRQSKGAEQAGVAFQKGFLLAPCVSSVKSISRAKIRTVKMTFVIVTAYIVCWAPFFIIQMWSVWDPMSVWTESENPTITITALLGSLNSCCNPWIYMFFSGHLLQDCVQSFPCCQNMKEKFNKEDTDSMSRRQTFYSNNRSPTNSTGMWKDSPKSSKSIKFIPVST
This assays allows to determine the affinity of the test compounds for the V1a receptor. Membranes from CHO cells expressing the hV1a receptor were resuspended in buffer containing 50 mM Tris-HCl, pH 7.4, 5 mM MgCl2 and 0.1% BSA (w/v). The membranes (5-10 μg) were mixed with 0.2 mg wheat-germ aglutinin (WGA) SPA bead (type A) and 0.03 nM of the radiolabel [^125I]-LVA (LVA being Linear Vasopressin Antagonist and is an analogue of AVP for competition binding experiments). Non-specific binding was determined in the presence of 1 μM AVP. The total assay volume was 100 μl. The plates (Corning 0 NBS plate) were incubated at room temperature for 2 hours and counted on a Mibrobeta plate counter. The tests compounds were used in concentrations of 30 μM, 10 μM, 1 μM, 300 nM, 100 nM, 10 nM, 1 nM, 100 pM, 10 pM. The competition binding data were analysed using the iterative, nonlinear, curve-fitting program, Graph pad “Prism”.
The binding affinities to the Via receptor of the sulfanilide derivatives claimed in the formula I were assessed using the above described in vitro biological assay. The values refer to the binding affinity (IC50; HM) of the example compounds according to formula I to the V1a receptor. From the values shown in Table 1 it can be derived that said test compounds according to formula I do show a significant binding to the Via receptor.

On hOT-R, `CCOc1ccc(S(=O)(=O)N(CC(=O)N/N=C2/C(=O)Nc3ccccc32)c2ccc(C)cc2)cc1` [Example 5, 4-ethoxy-N-(4-methylphenyl)-N-{2-oxo-2-[2-(2-oxo-1,2-dihydro-3H-indol-3-ylidene)hydrazino]ethyl}benzenesulfonamide] came in with an IC50 of 55 nM. In addition, the Ki at hV1a came to 750 nM.
